# Reference: US11959145B2, “Method for identifying interventions that control the translational activity of ribosomal proteins in differential mRNA expression” (priority 2009, dated 2024)
# “Also recorded” adds a separate entry of the source.
# Test system: CYH2-PTC-FF reporter
# Assay: dual luciferase (Firefly/Renilla) CYH2-PTC reporter assay
# Type: cell-based, yeast
# Excerpt: FIG. 1: Schematic representation of comparative dual luciferase PTC assay as employed here. Firefly (FF) and Renilla (R) in wild type (WT) yeast cells are compared with luminescence counts of a PTC-FF reporter (e.g. the CYH2-PTC-FF reporter) in wild type yeast cells, wherein a PTC reduces the FF protein and thus luminescence.
# FIG. 3: Gene dosage of ribosomal proteins modulates level of protein expression from PTC mRNAs. […] In FIG. 3B, a modulation of the expression of the FF/FF(PTC) reporter in selected ribosomal protein deletion strains is shown. In FIG. 3C, a modulation of expression of the LAMB3-FF/LAMB3(PTC)-FF reporter in selected ribosomal protein deletion strains is shown.
# The yeast CYH2 was amplified from the genomic yeast DNA with the primers LG 751 and LG 752. The ATG of the CYH2 was left out to be in frame with the promoter and the firefly luciferase reporter. The 1.0 kb PCR product and pLBK 162 were digested with KpnI and SacI. The CYH2-PTC reporter was ligated in pLBK 162, thus generating pLBK 165 (FIG. 5f). […]
# The reporter plasmids are to be transformed in the WT and ribosomal protein deletion strains. […] For testing the different levels of read-through a PTC containing reporter plasmid (e.g. pLBK 165) and for internal standard pLBK 164 are used. […]
substance,measurement,setting,value
gentamycin,expression level of the CYH2-PTC-FF reporter,"RPL10/ΔRPL10 gene dosage reduced yeast strain, gentamycin added",not strong or not present at all; also recorded: does not contribute to alteration
same,CYH2-PTC-FF level (Firefly signal),"WT yeast strain (BY4743), gentamycin added as control",the signal increases; also recorded: induce an increase
